Measured values from patent publication US20250177396A1, “POLO-LIKE KINASE 4 (PLK4) INHIBITORS, PHARMACEUTICAL COMPOSITIONS, METHODS OF PREPARATION AND USES THEREOF” (Repare Therapeutics Inc., priority 2022, published 2025).

Molecular target: T1, PLK4 (Homo sapiens, UniProt O00444)
T1 construct: expressed in transfected cells; host or cells: HEK293 T cells (ATCC CRL-3216)
T1 sequence (O00444 1-970): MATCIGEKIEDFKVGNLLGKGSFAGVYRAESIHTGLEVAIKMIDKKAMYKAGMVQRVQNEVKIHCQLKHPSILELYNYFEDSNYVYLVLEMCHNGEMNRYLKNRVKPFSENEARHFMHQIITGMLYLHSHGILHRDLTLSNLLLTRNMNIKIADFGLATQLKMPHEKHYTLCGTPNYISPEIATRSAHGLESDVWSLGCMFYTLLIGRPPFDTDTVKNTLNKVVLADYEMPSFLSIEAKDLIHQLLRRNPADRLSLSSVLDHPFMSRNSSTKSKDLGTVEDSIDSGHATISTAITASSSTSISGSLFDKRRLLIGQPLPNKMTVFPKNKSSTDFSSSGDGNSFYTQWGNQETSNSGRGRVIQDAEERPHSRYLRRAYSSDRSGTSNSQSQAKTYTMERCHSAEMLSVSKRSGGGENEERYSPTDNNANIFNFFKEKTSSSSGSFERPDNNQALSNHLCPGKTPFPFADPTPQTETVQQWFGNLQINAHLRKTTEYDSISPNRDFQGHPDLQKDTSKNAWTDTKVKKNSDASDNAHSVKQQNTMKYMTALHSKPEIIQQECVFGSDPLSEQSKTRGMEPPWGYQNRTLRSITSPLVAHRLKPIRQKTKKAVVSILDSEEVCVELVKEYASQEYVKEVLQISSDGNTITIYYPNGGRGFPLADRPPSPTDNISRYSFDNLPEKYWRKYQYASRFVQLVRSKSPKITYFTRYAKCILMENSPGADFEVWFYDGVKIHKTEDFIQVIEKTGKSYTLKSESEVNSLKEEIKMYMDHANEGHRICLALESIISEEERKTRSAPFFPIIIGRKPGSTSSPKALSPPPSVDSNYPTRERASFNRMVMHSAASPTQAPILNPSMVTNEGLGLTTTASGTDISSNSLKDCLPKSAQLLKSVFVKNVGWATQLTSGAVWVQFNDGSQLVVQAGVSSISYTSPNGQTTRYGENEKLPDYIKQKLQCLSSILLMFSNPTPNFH
Test: PLK4 NanoBRET target engagement assay
Type: binding
Settings: HEK293 T cells transfected with PLK4 NanoLuc fusion vector; K-5 tracer; 2 hrs incubation
Protocol: To determine the affinity of Compounds described herein in the PLK4 NanoBRET target engagement assay, HEK293 T cells (ATCC Product Number CRL-3216) are first transfected with the PLK4 NanoLuc fusion vector DNA and Transfection carrier DNA using the Fugene HD Transfection reagent in Opti-MEM No Phenol Red buffer. After an overnight incubation in a 37° C./5% CO2 incubator, the transfected HEK293 T cells are trypsinized, counted, and resuspended in Opti-MEM No Phenol Red buffer at a concentration of 200000 cells/mL. White 96-well plates are then plated with 85 μL of cells (17000 cells/well) to which 5 μL of the 20×K-5 tracer solution diluted in tracer dilution buffer is added. Finally, 10 μL of the 10× compounds are added and the plates and then incubated in a 37° C./5% CO2 incubator for 2 hrs. After the incubation, a 50 uL 3× solution of the substrate/inhibitor mix is added to the cells. The plate is then transferred in the Envision plate reader where the Acceptor emission (610 nm) and the Donor emission (450 nm) are measured.
The IC50 of compounds is determined as follows: • 1. The ratio between the Acceptor emission (610 nm)/Donor emission (450 nm) is calculated. • 2. This ratio is then multiplied by 1000 to obtain the mBRET units (multiplying by 1000 is an arbitrary step that simply makes the data easier to interpret; it has no impact on the data set itself) • 3. The mBRET units are then used in Scigilian Analyze software (https://analyze.scigilian.io) to determine the IC50 value using a 4-parameter fit analysis.

`Cc1cc(Nc2nc(N(C)c3c(F)cc(S(C)(=O)=O)cc3F)cc(-c3cnn(C)c3)c2C2CC2)n[nH]1` [Compound 92] and `Cc1cc(Nc2nc(N(C)c3ccc(S(C)(=O)=O)cc3F)cc(-c3cnn(C)c3)c2C2CC2)n[nH]1` [Compound 93] are within 1.5-fold of each other in IC50: 53 nM for the first, 78 nM for the second.

First: Cc1cc(Nc2nc(Sc3ccc(S(C)(=O)=O)cc3F)cc(-c3cnn(C)c3)c2C2CC2)n[nH]1 [Compound 94]
Second: COc1c(Nc2cc(C)[nH]n2)nc(Sc2ccc(S(C)(=O)=O)cc2F)c(F)c1-c1cnn(C)c1 [Compound 95]
The IC50 of the first is 1.5-fold lower: 110 nM for the first, 170 nM for the second.

First: COc1c(Nc2cc(C)[nH]n2)nc(Nc2ccc(S(C)(=O)=O)cc2C)c(C)c1-c1cnn(C)c1 [Compound 96]
Second: COc1c(Nc2cc(C)[nH]n2)nc(N(C)c2ccc(S(C)(=O)=O)cc2F)c(C)c1-c1cnn(C)c1 [Compound 99]
The IC50 of the first is 7.2-fold lower: 670 nM for the first, 4800 nM for the second.

Compared with `COc1c(Nc2cc(C)[nH]n2)nc(Sc2ccc(S(C)(=O)=O)cc2F)c(N(C)C)c1-c1cnn(C)c1` [Compound 97], `COc1c(Nc2cc(C)[nH]n2)nc(Sc2ccc(S(C)(=O)=O)cc2F)c(Cl)c1-c1cnn(C)c1` [Compound 100] is 5-fold lower in IC50: 1200 nM for the first, 240 nM for the second. The second is the more potent here.

Going from `COc1c(Nc2cc(C)[nH]n2)nc(N(C)c2ccc(S(C)(=O)=O)cc2F)c(C#N)c1-c1cnn(C)c1` [Compound 98] to `COc1c(Nc2cc(C)[nH]n2)nc(Sc2ccc(S(C)(=O)=O)cc2F)c(C#N)c1-c1cnn(C)c1` [Compound 101], the IC50 falls from 2000 nM to 120 nM (17-fold). The second is the more potent here.

First: COc1c(Nc2cc(C)[nH]n2)nc(Sc2ccc(S(C)(=O)=O)cc2F)c(N)c1-c1cnn(C)c1 [Compound 102]
Second: COc1c(Nc2cc(C)[nH]n2)nc(N(C)c2cc(Cl)c(S(C)(=O)=O)cc2F)nc1-c1cnn(C)c1 [Compound 116]
The IC50 of the first is 12-fold higher: 840 nM for the first, 68 nM for the second. The second is the more potent here.

Compared with `Cc1cc(Nc2nc(N(C)c3c(F)cc(S(C)(=O)=O)cc3F)nc(-c3c[nH]cn3)c2C2CC2)n[nH]1` [Compound 103], `Cc1cc(Nc2nc(N(C)c3c(F)cc(S(C)(=O)=O)cc3F)nc(-c3cc[nH]n3)c2C2CC2)n[nH]1` [Compound 106] is 1.5-fold lower in IC50: 9 nM for the first, 6 nM for the second.

Going from `Cc1cc(Nc2nc(N(C)c3c(F)cc(S(C)(=O)=O)cc3F)nc(-c3cnn(C)n3)c2C2CC2)n[nH]1` [Compound 104] to `Cc1cc(Nc2nc(N(C)c3c(F)cc(S(C)(=O)=O)cc3F)nc(-c3cncn3C)c2C2CC2)n[nH]1` [Compound 134], the IC50 falls from 15 nM to 7 nM (2.1-fold). The second is the more potent here.

Compared with `Cc1cc(Nc2nc(N(C)c3ccc(S(C)(=O)=O)cc3F)nc(-n3cncn3)c2C2CC2)n[nH]1` [Compound 105], `Cc1cnn(-c2nc(N(C)c3ccc(S(C)(=O)=O)cc3F)nc(Nc3cc(C)[nH]n3)c2C2CC2)c1` [Compound 112] is 6.7-fold lower in IC50: 740 nM for the first, 110 nM for the second. The second is the more potent here.

`Cc1cn(-c2nc(N(C)c3ccc(S(C)(=O)=O)cc3F)nc(Nc3cc(C)[nH]n3)c2C2CC2)cn1` [Compound 107] and `Cc1ccn(-c2nc(N(C)c3ccc(S(C)(=O)=O)cc3F)nc(Nc3cc(C)[nH]n3)c2C2CC2)n1` [Compound 113] are within 1.5-fold of each other in IC50: 120 nM for the first, 150 nM for the second.

Going from `Cc1cc(Nc2nc(N(C)c3ccc(S(C)(=O)=O)cc3F)nc(-c3cnn4cccnc34)c2C2CC2)n[nH]1` [Compound 108, 5-cyclopropyl-N^2-(2-fluoro-4-(methylsulfonyl)phenyl)-N^2-methyl-N^4-(5-methyl-1H-pyrazol-3-yl)-6-(pyrazolo[1,5-a]pyrimidin-3-yl)pyrimidine-2,4-diamine] to `Cc1cc(Nc2nc(N(C)c3ccc(S(C)(=O)=O)cc3F)nc(-c3cnn(C)n3)c2C2CC2)n[nH]1` [Compound 109], the IC50 rises from 16 nM to 49 nM (3.1-fold).

First: Cc1cc(Nc2nc(N(C)c3ccc(S(C)(=O)=O)cc3F)nc(N3CCOc4ccncc43)c2C2CC2)n[nH]1 [Compound 110, 5-cyclopropyl-6-(2,3-dihydro-4H-pyrido[4,3-b][1,4]oxazin-4-yl)-N^2-(2-fluoro-4-(methylsulfonyl)phenyl)-N^2-methyl-N^4-(5-methyl-1H-pyrazol-3-yl)pyrimidine-2,4-diamine]
Second: Cc1cc(Nc2nc(N(C)c3ccc(S(C)(=O)=O)cc3F)nc(N3CCCC(S(C)(=O)=O)C3)c2C2CC2)n[nH]1 (centres unmarked) [Compound 111, 5-cyclopropyl-N^2-(2-fluoro-4-(methylsulfonyl)phenyl)-N^2-methyl-N^4-(5-methyl-1H-pyrazol-3-yl)-6-(3-(methylsulfonyl)piperidin-1-yl)pyrimidine-2,4-diamine]
The IC50 of the first is 3.7-fold higher: 160 nM for the first, 43 nM for the second.

Going from `Cc1cc(Nc2nc(N(C)c3c(F)cc(S(C)(=O)=O)c(C)c3F)nc(-c3cnn(C)c3)c2C2CC2)n[nH]1` [Compound 114] to `Cc1cc(Nc2nc(N(C)c3c(F)cc(S(C)(=O)=O)c(Cl)c3F)nc(-c3cnn(C)c3)c2C2CC2)n[nH]1` [Compound 120], the IC50 rises from 10 nM to 19 nM (1.9-fold). The first is the more potent here.

Compared with `Cc1cc(Nc2nc(N(C)c3c(F)cc(S(C)(=O)=O)cc3F)nc(-c3cn(C)nc3C#N)c2C2CC2)n[nH]1` [Compound 115], `Cc1cc(Nc2nc(N(C)c3c(F)cc(S(C)(=O)=O)cc3F)nc(-c3cn(C)c(C)n3)c2C2CC2)n[nH]1` [Compound 124] is 11-fold lower in IC50: 22 nM for the first, 2 nM for the second. The second is the more potent here.

Compared with `COc1c(Nc2cc(C)[nH]n2)nc(N(C)c2ccc(S(C)(=O)=O)c(Cl)c2F)nc1-c1cnn(C)c1` [Compound 117], `Cc1cc(Nc2nc(N(C)c3c(F)cc(S(C)(=O)=O)cc3Cl)nc(-c3cnn(C)c3)c2C2CC2)n[nH]1` [Compound 118] is higher in IC50: 220 nM for the first, over 5000 nM for the second.

First: Cc1cc(Nc2nc(N(C)c3c(F)cc(S(C)(=O)=O)cc3F)nc(-c3c[nH]nc3C)c2C2CC2)n[nH]1 [Compound 122]
Second: Cc1cc(Nc2nc(N(C)c3c(F)cc(S(C)(=O)=O)cc3F)nc(-c3c(C)ncn3C)c2C2CC2)n[nH]1 [Compound 129]
The IC50 of the first is 7.1-fold lower: 8 nM for the first, 57 nM for the second.

Compared with `Cc1cc(Nc2nc(N(C)c3cc(F)c(S(C)(=O)=O)cc3F)nc(-c3cn(C)cn3)c2C2CC2)n[nH]1` [Compound 125, 5-cyclopropyl-N^2-(2,5-difluoro-4-(methylsulfonyl)phenyl)-N^2-methyl-6-(1-methyl-1H-imidazol-4-yl)-N^4-(5-methyl-1H-pyrazol-3-yl)pyrimidine-2,4-diamine], `Cc1cc(Nc2nc(N(C)c3cc(F)c(S(C)(=O)=O)cc3F)nc(-c3ccn(C)n3)c2C2CC2)n[nH]1` [Compound 133] is 2.6-fold higher in IC50: 7 nM for the first, 18 nM for the second.

`Cc1cc(Nc2nc(N(C)c3c(F)cc(S(C)(=O)=O)cc3F)nc(-c3cnn(C4CC4)c3)c2C2CC2)n[nH]1` [Compound 126] and `Cc1cc(Nc2nc(N(C)c3c(F)cc(S(C)(=O)=O)cc3F)nc(-c3cnn(CF)c3)c2C2CC2)n[nH]1` [Compound 127] are within 1.5-fold of each other in IC50: 5 nM for the first, 6 nM for the second.

Going from `Cc1cc(Nc2nc(N(C)c3c(F)cc(S(C)(=O)=O)cc3F)nc(-c3cn(C(F)F)cn3)c2C2CC2)n[nH]1` [Compound 128] to `Cc1cc(Nc2nc(N(C)c3c(F)cc(S(C)(=O)=O)cc3F)nc(-c3cn(C(C)C)cn3)c2C2CC2)n[nH]1` [Compound 137], the IC50 falls from 6 nM to 3 nM (2-fold).

First: Cc1cc(-c2nc(N(C)c3c(F)cc(S(C)(=O)=O)cc3F)nc(Nc3cc(C)[nH]n3)c2C2CC2)cnn1 [Compound 130]
Second: CCn1cnc(-c2nc(N(C)c3c(F)cc(S(C)(=O)=O)cc3F)nc(Nc3cc(C)[nH]n3)c2C2CC2)c1 [Compound 136]
The IC50 of the first is 4.8-fold higher: 24 nM for the first, 5 nM for the second. The second is the more potent here.

First: Cc1cc(Nc2nc(N(C)c3c(F)cc(S(C)(=O)=O)cc3F)nc(-c3cnn(C(F)F)c3)c2C2CC2)n[nH]1 [Compound 131]
Second: Cc1cc(Nc2nc(N(C)c3c(F)cc(S(C)(=O)=O)cc3F)nc(-c3ccncn3)c2C2CC2)n[nH]1 [Compound 135]
The IC50 of the first is 2-fold lower: 9 nM for the first, 18 nM for the second.

Compared with `Cc1cc(Nc2nc(N(C)c3c(F)cc(S(C)(=O)=O)cc3F)nc(C3CC3)c2C2CC2)n[nH]1` [Compound 138], `COCCn1cnc(-c2nc(N(C)c3c(F)cc(S(C)(=O)=O)cc3F)nc(Nc3cc(C)[nH]n3)c2C2CC2)c1` [Compound 139] is 40-fold lower in IC50: 160 nM for the first, 4 nM for the second.
